We go through seven compounds from patent EP1124556B1, “USE OF OPTICALLY PURE (R)-TOFISOPAM FOR TREATING AND PREVENTING ANXIETY DISORDERS” (priority 1998, dated 2000).

In one series the test system is Male Long Evans rats. Briefly: Head-twitch response assay (potentiation of 5-MeODMT-induced head-twitches) for anxiolytic activity. Particulars: for Head Twitch: one hour before interperitoneal 3mg/kg 5-MeODMT, number of head-twitches over 1-5 minute period post injection, individual rats No. 1-3; for Score: group of 3 rats. It counts as in vivo. The arrangement: Score: scale not given here. As for the experimental part:
Dry preparations of tofisopam, R-tofisopam or S-tofisopam were dissolved in 2% Tween 80/5% DMSO for oral administration in a blind assay. Diazepam (Sigma, U.S.A.) was similarly dissolved in DMSO (Merck, Germany), distilled water and Tween 80 (Wako Pure Industries, Ltd., Japan).
Male Long Evans rats provided by animal breeding center of MDS Panlabs Taiwan, Ltd., were used. Space allocation for animals was as follows: 45 x 23 x 15 cm for 6 rats. Rats were housed in APEC® (Allentown Gaging, Allentown, NJ 08501, U.S.A.) cages in a positive pressure isolator (NuAire® , Mode: Nu-605, airflow velocity 50± 5 ft/min, HEPA Filter). All animals were maintained in a controlled temperature (22°C - 24°C) and humidity (60% - 80%) environment with 12 hours light dark cycles for at least one week in MDS Panlabs Taiwan laboratory prior to being used. Free access to standard lab chow for rats (Fwusow Industry Co., Limited, Taiwan) and tap water was granted. All aspects of this work including housing, experimentation and disposal of animals were performed in general accordance with the International Guiding Principles for Biomedical Research Involving Animals (CIOMS Publication No. ISBN 92 90360194, 1985).
Moser, P.C., "The Effect of Novel Axiolytics on the Head-Twitch Response in Mice" British J. Pharmacol Suppl. 99:248P (1990) . Based on those assays, test substances were administered orally to the rats one hour before interperitoneal injection of 3mg/kg 5-MeODMT. The number of head-twitches over a 1-5 minute period post injection were recorded (Table 1).

For another series, the system named is benzodiazepine receptor. Conditions: cited from earlier work.
Another series has as its system patients. Particulars: cited from earlier work.
The conditions of series [1]: in vivo; cited from earlier work.
Series [2] is described as follows: Conformer interconversion in solution. It counts as physicochemical. As for the experimental part: The enantiomers of tofisopam were resolved by chiral chromatography. For example, tofisopam (42.8mg dissolved in acetonitrile) was loaded onto a Chirobiotic V column (ASTEC, Whippany, NJ). Elution of the compounds with MTBE/ACN 90/10 (v/v), 40ml/min, was monitored at 310nm, 2mm path. The R(+) enantiomer was the first compound to elute from the column. The R(+) enantiomer was collected, dried and stored for use in biological assays. R(-)-tofisopam ("A" ' ) , S (-/+) tofisopam ("B" and "B' ") , and residual R(+)-tofisopam ("A") co-eluted and was collected in a subsequent fraction (e.g., FIG. 1, fraction 2). Approximately 20% of the R(+)-tofisopam in fraction 1 is converted into R(-)-tofisopam if left in solution for 24 hours. A 80/20 stable equilibrium (R+/R-) was observed between the two conformers in MTBE/ACN (90/10) solution at room temperature.

For a further series, the target named is site II of HSA (Homo sapiens, UniProt P02768). Conditions: cited from earlier work.
A further series concerns the target dopamine (D2L) receptor (Homo sapiens, UniProt P14416). Briefly: Dopamine receptor binding (preliminary results).
The conditions of series [3]: cited from earlier work.

“And” between values parts separate entries of the source, which are not always exact repeats. Identical values can stand only once.

Chain of dopamine (D2L) receptor (P14416 whole entry): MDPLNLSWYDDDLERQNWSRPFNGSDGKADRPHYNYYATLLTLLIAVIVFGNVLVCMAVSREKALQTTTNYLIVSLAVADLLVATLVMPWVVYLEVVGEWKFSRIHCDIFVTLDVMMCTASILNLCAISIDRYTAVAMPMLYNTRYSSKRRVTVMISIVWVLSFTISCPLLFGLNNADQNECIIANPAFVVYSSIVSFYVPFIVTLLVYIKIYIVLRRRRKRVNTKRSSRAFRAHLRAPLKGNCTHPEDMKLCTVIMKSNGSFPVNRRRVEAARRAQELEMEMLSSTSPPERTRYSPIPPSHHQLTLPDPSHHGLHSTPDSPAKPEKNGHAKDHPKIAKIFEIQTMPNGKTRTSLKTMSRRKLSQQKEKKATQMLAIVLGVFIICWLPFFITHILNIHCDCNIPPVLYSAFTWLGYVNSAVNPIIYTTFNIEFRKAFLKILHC
Chain of site II of HSA (P02768 25-609): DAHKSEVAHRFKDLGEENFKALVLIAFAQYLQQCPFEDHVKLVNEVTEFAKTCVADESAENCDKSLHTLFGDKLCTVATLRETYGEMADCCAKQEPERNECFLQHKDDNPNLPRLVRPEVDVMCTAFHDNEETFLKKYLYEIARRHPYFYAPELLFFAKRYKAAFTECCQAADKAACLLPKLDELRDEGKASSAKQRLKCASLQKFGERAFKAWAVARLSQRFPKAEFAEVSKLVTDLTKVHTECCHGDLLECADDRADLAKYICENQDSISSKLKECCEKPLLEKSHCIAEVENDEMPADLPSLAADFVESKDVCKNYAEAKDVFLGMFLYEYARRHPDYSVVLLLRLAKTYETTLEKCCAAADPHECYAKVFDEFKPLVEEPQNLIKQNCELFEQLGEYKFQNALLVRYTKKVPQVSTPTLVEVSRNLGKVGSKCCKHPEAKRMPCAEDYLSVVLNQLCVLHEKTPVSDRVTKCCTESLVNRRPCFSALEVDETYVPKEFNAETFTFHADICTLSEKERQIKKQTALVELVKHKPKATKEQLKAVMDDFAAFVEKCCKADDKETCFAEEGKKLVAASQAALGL

As to `CCC1C(C)=NN=C(c2ccc(OC)c(OC)c2)c2cc(OC)c(OC)cc21` (racemic) [tofisopam, 1-(3,4-dimethoxy-phenyl) - 4-methyl-5-ethyl-7,8-dimethoxy-5H-2,3-benzodiazepine], in the series on Male Long Evans rats (PO 30 mg/kg), the “Head Twitch” value was 0 and the Score is listed as 0. Further, the “binding to the benzodiazepine receptor” value with benzodiazepine receptor is “does not bind to the benzodiazepine receptor”. In addition, the “binding of BDZs to their receptors” value in the series on benzodiazepine receptor (in vivo and in vitro, after acute and chronic treatment) was “enhances the binding of BDZs to their receptors”. The “patients reporting side effects during treatment” value with patients (double-blind study, 4 weeks, 57 outpatients with anxiety and depression) is recorded as “twenty-one”. The anxiolytic effect entry in the series with patients (multicenter study, 325 patients, 3 weeks, 150-1300 mg/day) is “effective anxiolytic”. Moreover, the “anticonvulsive, muscle relaxant or sedative effects” value in series [1] is listed as “not have anticonvulsive, muscle relaxant or sedative effects”.
For `CN1C(=O)CN=C(c2ccccc2)c2cc(Cl)ccc21` [Diazepam], in the series with Male Long Evans rats (PO 10 mg/kg), the “Head Twitch” value is 5 and 1 and 9; the Score came out at 2.
Turning to `CC[C@H]1C(C)=NN=C(c2ccc(OC)c(OC)c2)c2cc(OC)c(OC)cc21` [R(+)-tofisopam], in series [2] (MTBE/ACN (90/10) solution at room temperature), the “stable equilibrium (R+/R-)” value is 80/20. Moreover, the “converted into R(-)-tofisopam” value in series [2] (left in solution for 24 hours) is “Approximately 20%”.
Regarding `CC[C@@H]1C(C)=NN=C(c2ccc(OC)c(OC)c2)c2cc(OC)c(OC)cc21` [S-tofisopam], in the series on Male Long Evans rats (PO 30 mg/kg), the “Head Twitch” value is 0 and the Score is listed as 0.
For the compound `N[C@@H](Cc1c[nH]c2ccccc12)C(=O)O` [L-Tryptophan], the “affinity for site II of HSA relative to the other enantiomer” value at site II of HSA is reported as “about 100 times”.
On to `CC[C@H]1C(C)=NN=C(c2ccc(OC)c(OC)c2)c2cc(OC)c(OC)cc21` [R-tofisopam, R-1-(3,4-dimethoxyphenyl)-5-ethyl-7,8-dimethoxy-4-methyl-5H-2,3-benzodiazepine], for which, in the series with Male Long Evans rats (PO 30 mg/kg), the “Head Twitch” value is 0 and 2 and 1; the Score is reported as 1. For the same compound, the “side effects related to binding to the dopamine (D2L) receptor” value on dopamine (D2L) receptor is given as “cannot manifest side effects related to binding to the dopamine (D2L) receptor”.
As to `O=C1CCC(N2C(=O)c3ccccc3C2=O)C(=O)N1` (racemic) [racemic thalidomide], the “solubility relative to its separate isomers” value in series [3] is reported as “ten times less soluble”.
